# Like-named read-outs stand apart in the source and are kept apart here.
# How the values were obtained:
# [1] = Acid-base ionization constants; format: physicochemical
# [2] = system: rats; assay: Behavioral despair models, rats; format: in vivo; settings: single, multiple, and chronic administrations, unpublished data
# [3] = Single ascending-dose study, safety (adverse events); format: in vivo, human
# Procedure: The study comprised a total of 7 dose groups (2.5, 5, 10, 20, 40, 60, and 80 mg groups, respectively). The first dose group (2.5 mg) consisted of 8 subjects, with 6 receiving HEC113995PA·H2O and 2 receiving placebo. Dose groups 2–7 each included 10 subjects, with 8 subjects receiving HEC113995PA·H2O and 2 subjects receiving placebo. Male and female participants were randomly assigned to the groups. Serial blood samples were collected before and after drug administration to determine the plasma concentration of pharmacokinetics (PK) and to evaluate the pharmacokinetic characteristics. The time points of blood collection and safety evaluation of PK in the second to seventh dose groups were adjusted based on the results of the first dose group. Drug safety and tolerability were evaluated on day 2 and 4 in the first dose group and on day 4 and 7 in the second to seventh dose groups. The trial was conducted in a dose-escalation manner, with progression to the next dose arm only after the safety of the previous arm had been evaluated. In the fourth group (20 mg group), in addition to blood samples, urine and stool samples were also collected for in vivo drug metabolic transformation studies.
# Safety indicators were assessed through adverse events (AE), clinical laboratory tests (including blood routine, blood biochemistry, urine routine), vital signs monitoring (ear temperature), pulse, respiration and blood pressure in a sitting position), 12-lead electrocardiogram (ECG) and physical examinations. Adverse events (AE) and serious adverse events (SAE) were evaluated following the criteria outlined in National Cancer Institute Common Terminology Criteria for Adverse Events (NCI-CTCAE) version 5.0.
# Any adverse events that occurred in all subjects during the clinical trial were recorded with the following details: AE name, occurrence time, end time, severity, whether it was classified as a SAE, severity criteria (if applicable), treatment measures and outcomes, actions taken on investigational drug due to the AE, and the causal relationship between the AE and administrated drug, etc. Each AE was recorded separately.
# The subjects were under close monitoring at the clinical research center until the sample retention and safety evaluation were completed. During the safety trial, drug intolerance of a given dose was defined as follows: grade 2 or higher drug-related AEs occurred in more than half of the subjects, or grade 3 or higher drug-related AEs occurred in more than one quarter of the subjects. The dose escalation was halted after drug intolerance occurred.
# [4] = system: rodent; assay: In vivo rodent studies (comparison with Vilazodone, sedation); settings: rodent behavioral despair models; unpublished data
structure (smiles),measurement,setting,value
Cc1nc(-c2cnc(N3CCN(CCCc4c[nH]c5ccc(C#N)cc45)CC3)nc2)sc1C(N)=O [HEC113995PA·H2O],pKa,[1]; read-out: acid-base ionization constant pKa1,6.46
same,pKa,[1]; read-out: acid-base ionization constant pKa2,7.37
same,duration of immobility,[2],significantly reduce
same,incidence of subjects experiencing TEAEs,"[3]; SAD 2.5 mg group, 1 case",16.7%
same,incidence of subjects experiencing TEAEs,"[3]; SAD 5 mg group, 3 cases",37.5%
same,number of subjects experiencing TEAEs,[3]; SAD 10 mg group,0 case
same,incidence of subjects experiencing TEAEs,"[3]; SAD 20 mg group, 5 cases",62.5%
same,incidence of subjects experiencing TEAEs,"[3]; SAD 40 mg group, 6 cases",75%
same,incidence of subjects experiencing TEAEs,"[3]; SAD 60 mg group, 7 cases",87.5%
same,incidence of subjects experiencing TEAEs,"[3]; SAD 80 mg group, 7 cases",87.5%
same,incidence of subjects experiencing TEAEs,"[3]; SAD overall safety analysis set incl. placebo, 36 subjects",52.9%
same,incidence of subjects experiencing TRAE,"[3]; SAD overall safety analysis set, 33 cases",48.5%
same,TRAE incidence: abdominal distension,"[3]; SAD overall, 1 case",1.9%
same,TRAE incidence: elevated conjugated bilirubin,"[3]; SAD overall, 1 case",1.9%
same,TRAE incidence: elevated serum bilirubin,"[3]; SAD overall, 1 case",1.9%
same,TRAE incidence: elevated serum creatine phosphokinase,"[3]; SAD overall, 1 case",1.9%
same,TRAE incidence: hyperuricemia,"[3]; SAD overall, 5 cases",7.4%
same,TRAE incidence: nausea,"[3]; SAD overall, 5 cases",7.4%
same,TRAE incidence: dizziness,"[3]; SAD overall, 8 cases",11.8%
same,TRAE incidence: elevated triglycerides,"[3]; SAD overall, 8 cases",11.8%
same,TRAE incidence: diarrhea,"[3]; SAD overall, 13 cases",19.1%
same,severity of elevated conjugated bilirubin,"[3]; SAD, CTCAE 5.0",grade 2
same,severity of other TRAEs,"[3]; SAD, CTCAE 5.0, spontaneously relieved without treatment",grade 1
same,tolerability,"[3]; healthy Chinese subjects, single dose range 2.5–80 mg",well tolerated
same,efficacy relative to HEC61139 (Vilazodone),[4],more potent efficacy

# Reference: PMC11979273, “A phase I study to evaluate the safety, tolerability, and pharmacokinetics of HEC113995PA·H2O, a novel dual-acting serotonergic antidepressant, in healthy subjects” (Frontiers in Pharmacology, 2025)
